Test systems include IGROV-1; NCI-H23; DLD-1; RPMI-8226; U-251; OVCAR-8; Malme-3M; A549; SF-295; OVCAR-4; SNB-19; KM12; OVCAR-3; HL-60; NCI-H460; ACHN; M14.
What all share (assay): growth of human tumour cells (NCI), 48 h

Experimental findings from ChEMBL document CHEMBL1201862, “PubChem BioAssay data set” (2004) are described below.

Structures are written as SMILES.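 Tested at 5 concentrations; 48 h exposure; 96-well plates; endpoints linearly interpolated, else capped at highest concentration. GI50 marks 50% less growth.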 Active and inactive are the calls of the source. No stated cut-off is given here; in the data, active = GI50 up to about 1.1 µM and inactive = higher.

As for `COc1cc2c3c(c1OC)-c1ccccc1C(C(OC(C)=O)c1ccccc1)C3N(C)CC2` (stereo not drawn), the GI50 in the experiment with IGROV-1 is > 100 µM (inactive); with NCI-H23, 38.7 µM (inactive); in the experiment on DLD-1, 5.97 µM (inactive); in the experiment with RPMI-8226, 5.55 µM (inactive); with U-251, 34 µM (inactive); in the experiment with OVCAR-8, 34.8 µM (inactive). For the same molecule, the GI50 in the experiment on Malme-3M is 33.2 µM (inactive); in the experiment with A549 it was 32.8 µM (inactive); with SF-295, > 100 µM (inactive); in the experiment on OVCAR-4 it was 9.16 µM (inactive); with SNB-19 it was 48.4 µM (inactive); in the experiment with KM12, 25.7 µM (inactive). Moreover, the GI50 is 43.4 µM (inactive) in the experiment with OVCAR-3; 5.4 µM (inactive) in the experiment on HL-60; 30.5 µM (inactive) with NCI-H460; 14.8 µM (inactive) in the experiment on ACHN; 51.2 µM (inactive) in the experiment on M14.
For the molecule `Cc1cc2occ(C)c(=O)c2c2c1OC(C)(C)S2`, the GI50 in the experiment on IGROV-1 was > 100 µM (inactive); in the experiment with NCI-H23, > 100 µM (inactive); in the experiment on DLD-1, > 100 µM (inactive); in the experiment with RPMI-8226 it was 82.4 µM (inactive); in the experiment on U-251, > 100 µM (inactive); in the experiment with OVCAR-8, > 100 µM (inactive). In addition, the GI50 in the experiment with Malme-3M, in the experiment with A549, with SF-295, in the experiment on OVCAR-4, in the experiment with SNB-19 and with KM12 was > 100 µM (inactive) in each case. The GI50 in the experiment with OVCAR-3 is > 100 µM (inactive); in the experiment on HL-60 it was 38.1 µM (inactive); with NCI-H460, > 100 µM (inactive); with ACHN, > 100 µM (inactive); in the experiment on M14, > 100 µM (inactive).
For the molecule `CCOC(=O)CC(NC(=O)c1nc[nH]c1[N+](=O)[O-])C(=O)OCC` (stereo not drawn), the GI50 is 40.5 µM (inactive) in the experiment on IGROV-1; 22.6 µM (inactive) in the experiment on NCI-H23; 39 µM (inactive) in the experiment on DLD-1; 29.2 µM (inactive) in the experiment with RPMI-8226; 15.3 µM (inactive) with U-251; 32.1 µM (inactive) in the experiment on OVCAR-8. Moreover, the GI50 in the experiment with Malme-3M was > 100 µM (inactive); in the experiment on A549, 60.1 µM (inactive); in the experiment on SF-295, 33.5 µM (inactive); with OVCAR-4, 50.7 µM (inactive); in the experiment with SNB-19 it was 56.6 µM (inactive); in the experiment with KM12 it was 65.8 µM (inactive). Besides, the GI50 in the experiment on OVCAR-3 was 38.6 µM (inactive); in the experiment with HL-60, > 10 µM (inactive); in the experiment with NCI-H460, 52 µM (inactive); with ACHN, 42.2 µM (inactive); in the experiment on M14, 67.8 µM (inactive).
`CC1=C(SC#N)S(=O)(=O)N(c2ccccc2)C(C)=C1SC#N`: the GI50 in the experiment on IGROV-1 was 6.56 µM (inactive); in the experiment on NCI-H23 it was 48.2 µM (inactive); in the experiment on DLD-1, 33.3 µM (inactive); with RPMI-8226, 28.5 µM (inactive); in the experiment on U-251 it was 16.9 µM (inactive); in the experiment with OVCAR-8, 15.1 µM (inactive). Moreover, the GI50 with Malme-3M is > 100 µM (inactive); with A549, 40.7 µM (inactive); with SF-295, 22.6 µM (inactive); in the experiment with OVCAR-4, 33.3 µM (inactive); in the experiment with SNB-19, 25.1 µM (inactive); with KM12 it was 60.4 µM (inactive). For the same molecule, the GI50 with OVCAR-3 is > 10 µM (inactive); in the experiment on HL-60, 29 µM (inactive); in the experiment with NCI-H460 it was 32.8 µM (inactive); with ACHN it was 44 µM (inactive); in the experiment with M14 it was > 10 µM (inactive).
For `CCOC(=O)c1nc(-c2ccccc2)oc1OCC`, the GI50 was > 100 µM (inactive) in the experiment with IGROV-1; > 100 µM (inactive) in the experiment on NCI-H23; > 100 µM (inactive) in the experiment on DLD-1; 92.7 µM (inactive) with RPMI-8226; > 100 µM (inactive) in the experiment on U-251; > 100 µM (inactive) with OVCAR-8. Further, the GI50 with A549, with SF-295, with OVCAR-4, in the experiment with SNB-19, in the experiment on KM12 and with OVCAR-3 was > 100 µM (inactive) each time. Also, the GI50 in the experiment with HL-60 is 49.9 µM (inactive); in the experiment with NCI-H460 it was > 100 µM (inactive); in the experiment on M14, > 100 µM (inactive).
With `COc1cc2c(cc1OC)C1(c3ccccc3)ON=C(c3ccccc3)N1CS2` (stereo not drawn), the GI50 in the experiment on IGROV-1 is > 100 µM (inactive); with NCI-H23 it was > 100 µM (inactive); in the experiment with DLD-1, > 100 µM (inactive); in the experiment on RPMI-8226, 67.6 µM (inactive); in the experiment with U-251, > 100 µM (inactive); in the experiment with Malme-3M it was > 100 µM (inactive). Besides, the GI50 in the experiment with A549 is > 100 µM (inactive); with SF-295 it was 60.1 µM (inactive); with OVCAR-4, > 100 µM (inactive); in the experiment on SNB-19, > 100 µM (inactive); in the experiment with KM12, > 100 µM (inactive); in the experiment on OVCAR-3, > 100 µM (inactive). Also, the GI50 in the experiment on HL-60 was 16.1 µM (inactive); in the experiment on NCI-H460 it was > 100 µM (inactive); in the experiment on ACHN, > 100 µM (inactive); in the experiment with M14 it was 46 µM (inactive).
As to `O=C(/C=C\c1cccc2ccccc12)c1ccc(Br)cc1`, the GI50 in the experiment on IGROV-1 was 23.6 µM (inactive); with NCI-H23, 34 µM (inactive); in the experiment with DLD-1, 20.5 µM (inactive); in the experiment with RPMI-8226, 14.8 µM (inactive); in the experiment on U-251, 16.1 µM (inactive); with OVCAR-8, 17.5 µM (inactive). For the same molecule, the GI50 with Malme-3M was 31.3 µM (inactive); in the experiment with A549 it was > 100 µM (inactive); in the experiment with SF-295, 22.4 µM (inactive); in the experiment with OVCAR-4, 16.4 µM (inactive); with SNB-19, 25.7 µM (inactive); in the experiment on KM12, 15.1 µM (inactive). The GI50 in the experiment with OVCAR-3 was 18.4 µM (inactive); in the experiment on HL-60, 15 µM (inactive); with NCI-H460, 18.4 µM (inactive); in the experiment with ACHN, 17.4 µM (inactive); with M14 it was 18.1 µM (inactive).
For the molecule `Cc1cc(O)nc(NNC(C#N)c2c(O)ccc3ccccc23)n1` (stereo not drawn), the GI50 with IGROV-1 is 3.4 µM (inactive); in the experiment with NCI-H23, 3.56 µM (inactive); in the experiment on DLD-1 it was 3.42 µM (inactive); in the experiment on RPMI-8226, 3.72 µM (inactive); in the experiment with U-251 it was 2.91 µM (inactive); in the experiment with OVCAR-8 it was 3.1 µM (inactive). Moreover, the GI50 with Malme-3M is 7.55 µM (inactive); in the experiment on A549, 2.9 µM (inactive); in the experiment with SF-295, 4.74 µM (inactive); in the experiment with OVCAR-4, 3.32 µM (inactive); in the experiment on KM12, 4.29 µM (inactive); in the experiment with OVCAR-3, 1.78 µM (inactive). The GI50 in the experiment on HL-60 is 0.966 µM (active); in the experiment with NCI-H460 it was 2.89 µM (inactive); with ACHN it was 1.8 µM (inactive); in the experiment with M14, 2.51 µM (inactive).
As for `CCCCOP1(=O)CC(C)=C(Cl)C(C)(OC)C1` (stereo not drawn), the GI50 with IGROV-1 is > 100 µM (inactive); with NCI-H23 it was > 100 µM (inactive); in the experiment with DLD-1 it was 44.8 µM (inactive); with U-251, > 100 µM (inactive); with OVCAR-8, 62.2 µM (inactive); with Malme-3M, > 100 µM (inactive). In addition, the GI50 in the experiment on A549, with SF-295, with OVCAR-4, in the experiment with SNB-19, in the experiment with KM12 and in the experiment on OVCAR-3 was > 100 µM (inactive) in each case. For the same molecule, the GI50 in the experiment on HL-60 is 26.9 µM (inactive); in the experiment with NCI-H460, > 100 µM (inactive); with ACHN, > 100 µM (inactive); with M14, > 100 µM (inactive).
